From patent US11807852B2, “Compositions and methods for reactivating latent immunodeficiency virus” (The J. David Gladstone Institutes, a testamentary trust …, priority 2014, dated 2023)

Key:
[1] = system: J-Lat cells (clone A2: LTR-Tat-IRES-GFP); assay type: cell-based
Procedure: To test this hypothesis, J-Lat cells (clone A2: LTR-Tat-IRES-GFP) were treated with SMYD2 inhibitors. […] Both cell lines were co-treated with X2 and Ingenol 3,20-dibenzoate (a protein kinase C (PKC) activator), JQ1 (BET-bromodomain inhibitor), or the histone deacetylase (HDAC) inhibitor suberoylanilidehydroxamic acid (SAHA).

[2] = system: latent HIV-1 in human lymphocyte aggregate cultures (HLAC) from tonsils; test: Ex vivo infected tonsil HLAC latency model, HIV-luciferase reporter virus; assay type: cell-based; settings: in combination with JQ1
Procedure: HLAC cells were isolated by Ficoll-Histopaque density gradient centrifugation of sheared tonsils from HIV-seronegative donors (Vanderbilt University Medical Center, Nashville, Tenn.). Isolated HLAC cells were counted, collected as pellets by centrifugation at 1500 rpm for 5 min at room temperature, and re-suspended in the appropriate volume of concentrated viral NL4.3-Luc supernatant. Typically, 50-100 ng of p24 Gag per […] HLAC were used. Spinoculations were performed in 96-well V-bottom plates in volumes of 200 μl or less. Cells and virus were centrifuged at 2000 rpm for 1.5-2 h at room temperature. After spinoculation, cells were pooled and cultured at 1×10^6 cells/ml in RPMI 1640 containing 10% FBS and supplemented with 5 μM Saquinavir (Sigma-Aldrich) for 3 days to prevent any residual spreading infection.
For reactivation of latent HIV-1 provirus, cells were counted and collected as pellets by centrifugation at 1500 rpm for 10 min. […] After 15 min of lysis, the luciferase activity in cell extracts was quantified with a Perkin Elmer EnSpire 2300 Multimode plate reader after mixing 20 μl of lysate with 100 μl of substrate (Luciferase Assay System-Promega). Relative light units (RLU) were normalized to protein content determined by Bradford assay (BioRad). Cell viability was measured with CellTiter-Blue Cell Viability Assay (Promega).

[3] = system: CD4+ T cells from HIV-1-infected individuals; test: T-cell activation markers CD69 and CD25, flow cytometry; assay type: cell-based, human; settings: at the indicated concentrations (up to 500 nM)
Description: FIGS. 15 A-G depict the structural formulae for AZ505, AZ506, and AZ391, and the reactivation of latent HIV-1 with SMYD2 inhibitor X2 (AZ391) in CD4^+ T cells from HIV-1 infected individuals. (A) Structures of each compound are shown. (B) Intracellular HIV-1 mRNA levels in CD4^+ T cells, obtained from an infected individual (#1036) and treated ex vivo with AZ391, JQ1 or a combination of both, in indicated concentrations, presented as fold induction relative to DMSO control. Activation with αCD3/αCD28-Dynabeads was performed as control. (C) Flow cytometry of T-cell activation markers CD69 and CD25 in the same experiment. For each treatment group, CD69^+ (left) and CD25^+ (right). Shown as percentage of positive cells relative to αCD3/αCD28-treated cells (D) Cell viability as measured by CellTiter-Blue® Cell Viability assay (Promega) and Zombie Violet Fixable Viability kit (BioLegend) and presented as percentage of DMSO control treated cells. Data points indicate average of three technical replicates of donor #1036. (E-G) Same experiments as in b-d but performed with CD4^+ T cells obtained from three additional individuals (2013, 2185, 2511) with a single concentration of AZ391 (500 nM). In f and g, average of the three biological replicates (±SD) is show. For (F), for each treatment group, CD69^+ (left) and CD25^+ (right). […]

N#Cc1cc(C(=O)NCCCN2CCCC2)cc(-c2ccccc2N2CCN(CCc3c[nH]c4ccccc34)CC2)c1 [AZ391]
GFP-expressing cells compared with control-treated cells ([1]; A2 J-Lat cells): up to threefold more GFP-expressing cells than control-treated cells | activation of HIV transcription / reactivation of the HIV-LTR (GFP) ([1]; A2 J-Lat cells, single agent): activated HIV transcription in a dose-dependent manner | cell death ([1]; at the concentration that effectively activated HIV transcription): slight increase in cell death | reactivation of latent HIV-1 (luciferase) [2]: Positive effects | reactivation of latent HIV-1 (luciferase) ([2]; listed as X2): reactivates latent HIV-1 | global T-cell activation (CD69, CD25) [3]: No increase in global T-cell activation
